# Reference: paper PMC8963254, “Effects of Lysine N-ζ-Methylation in Ultrashort Tetrabasic Lipopeptides (UTBLPs) on the Potentiation of Rifampicin, Novobiocin, and Niclosamide in Gram-Negative Bacteria” (Antibiotics, 2022)
# Where two headings read alike, the source gives them in different places. Non-standard residues stand in square brackets, D forms with d. Residues, ends and D or L forms follow the SMILES beside them. *: point of attachment. Lys(Me) = CNCCCC[C@H](N)C(=O)O; Octanoyl = CCCCCCCC(=O)*
# Experiments:
# A. baumannii ATCC 17978 [1] = type: cell-based, Acinetobacter baumannii; settings: ATCC 17978, 18 h
# Method in brief: (§1)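 Turbidity at 590 nm defined growth, from which the MIC was taken. Cultures at a final density of 5 × 10^5 CFU/mL were exposed to a range of compound levels at 37 °C for 18 h in a CLSI-based microdilution format.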
# E. coli ATCC 25922 [2] = type: cell-based, Escherichia coli; settings: ATCC 25922, 18 h
# Method in brief: as §1
# E. faecalis ATCC 29212 = type: cell-based, Enterococcus faecalis; settings: ATCC 29212, 18 h
# Method in brief: as §1
# E. faecium ATCC 27270 = type: cell-based, Enterococcus faecium; settings: ATCC 27270, 18 h
# Method in brief: as §1
# [3] = tested on: P. aeruginosa PA259-96196; assay: microbe, parasite or virus in culture; type: cell-based, Pseudomonas aeruginosa; settings: PA259-96196, 18 h
# Method in brief: as §1
# [4] = tested on: P. aeruginosa PA262-101856; assay: microbe, parasite or virus in culture; type: cell-based, Pseudomonas aeruginosa; settings: PA262-101856, 18 h
# Method in brief: as §1
# MRSE 61589 [5] = type: cell-based, Staphylococcus epidermidis; settings: 61589, 18 h
# Method in brief: as §1
# MSSE 81388 [6] = type: cell-based, Staphylococcus epidermidis; settings: 18 h
# Method in brief: as §1
# A. baumannii 92247 = type: cell-based, Acinetobacter baumannii; settings: for MICUTBLP: UTBLP alone
# Method in brief: (§2)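 Checkerboard synergy assay: antibiotic and OMP combined at varying concentrations with 5 × 10^5 CFU/mL inoculum (final), 37 °C, 18 h; growth read as turbidity at 590 nm. FICI = sum of FICs (MIC in combination / MIC alone); ≤0.5 synergistic, 0.5–4 additive, >4 antagonistic.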
# A. baumannii AB027 = type: cell-based, Acinetobacter baumannii; settings: for MICUTBLP: UTBLP alone
# Method in brief: as §2
# A. baumannii ATCC 17978 [7] = type: cell-based, Acinetobacter baumannii; settings: for MICUTBLP: UTBLP alone
# Method in brief: as §2
# E. coli 94393 = type: cell-based, Escherichia coli; settings: for MICUTBLP: UTBLP alone
# Method in brief: as §2
# E. coli 94474 = type: cell-based, Escherichia coli; settings: for MICUTBLP: UTBLP alone
# Method in brief: as §2
# E. coli ATCC 25922 [8] = type: cell-based, Escherichia coli; settings: for MICUTBLP: UTBLP alone
# Method in brief: as §2
# K. pneumoniae 113250 = type: cell-based, Klebsiella pneumoniae; settings: for MICUTBLP: UTBLP alone
# Method in brief: as §2
# MRSE 61589 [9] = type: cell-based, Staphylococcus epidermidis
# Method in brief: as §2
# MSSE 81388 [10] = type: cell-based, Staphylococcus epidermidis
# Method in brief: as §2
# [11] = UTBLP in combination with novobiocin
# [12] = UTBLP in combination with rifampicin
# [13] = novobiocin in combination with the UTBLP
# [14] = rifampicin in combination with the UTBLP
# [15] = UTBLP in combination with chloramphenicol
# [16] = UTBLP in combination with niclosamide
# [17] = chloramphenicol in combination with the UTBLP
# [18] = niclosamide in combination with the UTBLP
# [19] = UTBLP alone, plate with chloramphenicol
compound,measurement,setting,value
CCCCCCCC(=O)NCCCC[C@H](NC(=O)CCCCCCC)C(=O)N[C@@H](CCCCNC)C(=O)N[C@@H](CCCCNC)C(=O)N[C@@H](CCCCNC)C(=O)N[C@@H](CCCCNC)C(N)=O [UTBLP 6] (Octanoyl-K(Octanoyl)[Lys(Me)][Lys(Me)][Lys(Me)][Lys(Me)]-NH2),MIC,A. baumannii ATCC 17978 [1],64 µg/mL
same,MIC,E. coli ATCC 25922 [2],32 µg/mL
same,MIC,E. faecalis ATCC 29212,32 µg/mL
same,MIC,E. faecium ATCC 27270,64 µg/mL
same,MIC,[3],> 128 µg/mL
same,MIC,[4],> 128 µg/mL
same,MIC,MRSE 61589 [5],16 µg/mL
same,MIC,MSSE 81388 [6],16 µg/mL
same,Interpretation,A. baumannii 92247; UTBLP + novobiocin,Synergy (FICI ≤ 0.5 is synergistic)
same,Interpretation,A. baumannii 92247; UTBLP + rifampicin,Synergy (FICI ≤ 0.5 is synergistic)
same,MICUTBLP,A. baumannii 92247; plate with novobiocin,32 µg/mL
same,MICUTBLP,A. baumannii 92247; plate with rifampicin,32 µg/mL
same,MICUTBLP [MICcombo],A. baumannii 92247; [11],1 µg/mL
same,MICUTBLP [MICcombo],A. baumannii 92247; [12],0.5 µg/mL
same,MICantibiotic [MICcombo],A. baumannii 92247; [13],0.125 µg/mL
same,MICantibiotic [MICcombo],A. baumannii 92247; [14],0.063 µg/mL
same,Interpretation,A. baumannii AB027; UTBLP + novobiocin,Synergy (FICI ≤ 0.5 is synergistic)
same,Interpretation,A. baumannii AB027; UTBLP + rifampicin,Synergy (FICI ≤ 0.5 is synergistic)
same,MICUTBLP,A. baumannii AB027; plate with novobiocin,> 128 µg/mL
same,MICUTBLP,A. baumannii AB027; plate with rifampicin,> 128 µg/mL
same,MICUTBLP [MICcombo],A. baumannii AB027; [11],16 µg/mL
same,MICUTBLP [MICcombo],A. baumannii AB027; [12],16 µg/mL
same,MICantibiotic [MICcombo],A. baumannii AB027; [13],0.031 µg/mL
same,MICantibiotic [MICcombo],A. baumannii AB027; [14],0.002 µg/mL
same,Interpretation,A. baumannii ATCC 17978 [7]; UTBLP + chloramphenicol,Additive (0.5 < x ≤ 4 is additive)
same,Interpretation,A. baumannii ATCC 17978 [7]; UTBLP + niclosamide,Synergy (FICI ≤ 0.5 is synergistic)
same,Interpretation,A. baumannii ATCC 17978 [7]; UTBLP + novobiocin,Synergy (FICI ≤ 0.5 is synergistic)
same,Interpretation,A. baumannii ATCC 17978 [7]; UTBLP + rifampicin,Synergy (FICI ≤ 0.5 is synergistic)
same,MICUTBLP,A. baumannii ATCC 17978 [7]; plate with chloramphenicol,64 µg/mL
same,MICUTBLP,A. baumannii ATCC 17978 [7]; plate with niclosamide,64 µg/mL
same,MICUTBLP,A. baumannii ATCC 17978 [7]; plate with novobiocin,64 µg/mL
same,MICUTBLP,A. baumannii ATCC 17978 [7]; plate with rifampicin,64 µg/mL
same,MICUTBLP [MICcombo],A. baumannii ATCC 17978 [7]; [15],8 µg/mL
same,MICUTBLP [MICcombo],A. baumannii ATCC 17978 [7]; [16],1 µg/mL
same,MICUTBLP [MICcombo],A. baumannii ATCC 17978 [7]; [11],4 µg/mL
same,MICUTBLP [MICcombo],A. baumannii ATCC 17978 [7]; [12],2 µg/mL
same,MICantibiotic [MICcombo],A. baumannii ATCC 17978 [7]; [17],32 µg/mL
same,MICantibiotic [MICcombo],A. baumannii ATCC 17978 [7]; [18],4 µg/mL
same,MICantibiotic [MICcombo],A. baumannii ATCC 17978 [7]; [13],0.25 µg/mL
same,MICantibiotic [MICcombo],A. baumannii ATCC 17978 [7]; [14],0.031 µg/mL
same,Interpretation,E. coli 94393; UTBLP + novobiocin,Synergy (FICI ≤ 0.5 is synergistic)
same,Interpretation,E. coli 94393; UTBLP + rifampicin,Synergy (FICI ≤ 0.5 is synergistic)
same,MICUTBLP,E. coli 94393; plate with novobiocin,64 µg/mL
same,MICUTBLP,E. coli 94393; plate with rifampicin,64 µg/mL
same,MICUTBLP [MICcombo],E. coli 94393; [11],4 µg/mL
same,MICUTBLP [MICcombo],E. coli 94393; [12],4 µg/mL
same,MICantibiotic [MICcombo],E. coli 94393; [13],1 µg/mL
same,MICantibiotic [MICcombo],E. coli 94393; [14],0.25 µg/mL
same,Interpretation,E. coli 94474; UTBLP + novobiocin,Synergy (FICI ≤ 0.5 is synergistic)
same,Interpretation,E. coli 94474; UTBLP + rifampicin,Synergy (FICI ≤ 0.5 is synergistic)
same,MICUTBLP,E. coli 94474; plate with novobiocin,> 128 µg/mL
same,MICUTBLP,E. coli 94474; plate with rifampicin,> 128 µg/mL
same,MICUTBLP [MICcombo],E. coli 94474; [11],16 µg/mL
same,MICUTBLP [MICcombo],E. coli 94474; [12],16 µg/mL
same,MICantibiotic [MICcombo],E. coli 94474; [13],1 µg/mL
same,MICantibiotic [MICcombo],E. coli 94474; [14],0.125 µg/mL
same,Interpretation,E. coli ATCC 25922 [8]; UTBLP + chloramphenicol,Synergy (FICI ≤ 0.5 is synergistic)
same,Interpretation,E. coli ATCC 25922 [8]; UTBLP + niclosamide,Synergy (FICI ≤ 0.5 is synergistic)
same,Interpretation,E. coli ATCC 25922 [8]; UTBLP + novobiocin,Synergy (FICI ≤ 0.5 is synergistic)
same,Interpretation,E. coli ATCC 25922 [8]; UTBLP + rifampicin,Synergy (FICI ≤ 0.5 is synergistic)
same,MICUTBLP,E. coli ATCC 25922 [8]; plate with chloramphenicol,32 µg/mL
same,MICUTBLP,E. coli ATCC 25922 [8]; plate with niclosamide,32 µg/mL
same,MICUTBLP,E. coli ATCC 25922 [8]; plate with novobiocin,32 µg/mL
same,MICUTBLP,E. coli ATCC 25922 [8]; plate with rifampicin,32 µg/mL
same,MICUTBLP [MICcombo],E. coli ATCC 25922 [8]; [15],8 µg/mL
same,MICUTBLP [MICcombo],E. coli ATCC 25922 [8]; [16],1 µg/mL
same,MICUTBLP [MICcombo],E. coli ATCC 25922 [8]; [11],2 µg/mL
same,MICUTBLP [MICcombo],E. coli ATCC 25922 [8]; [12],4 µg/mL
same,MICantibiotic [MICcombo],E. coli ATCC 25922 [8]; [17],2 µg/mL
same,MICantibiotic [MICcombo],E. coli ATCC 25922 [8]; [18],2 µg/mL
same,MICantibiotic [MICcombo],E. coli ATCC 25922 [8]; [13],0.5 µg/mL
same,MICantibiotic [MICcombo],E. coli ATCC 25922 [8]; [14],0.063 µg/mL
same,Interpretation,K. pneumoniae 113250; UTBLP + novobiocin,Synergy (FICI ≤ 0.5 is synergistic)
same,Interpretation,K. pneumoniae 113250; UTBLP + rifampicin,Synergy (FICI ≤ 0.5 is synergistic)
same,MICUTBLP,K. pneumoniae 113250; plate with novobiocin,> 128 µg/mL
same,MICUTBLP,K. pneumoniae 113250; plate with rifampicin,> 128 µg/mL
same,MICUTBLP [MICcombo],K. pneumoniae 113250; [11],16 µg/mL
same,MICUTBLP [MICcombo],K. pneumoniae 113250; [12],16 µg/mL
same,MICantibiotic [MICcombo],K. pneumoniae 113250; [13],2 µg/mL
same,MICantibiotic [MICcombo],K. pneumoniae 113250; [14],1 µg/mL
same,Interpretation,MRSE 61589 [9]; UTBLP + chloramphenicol,Additive (0.5 < x ≤ 4 is additive)
same,MICUTBLP,MRSE 61589 [9]; [19],16 µg/mL
same,MICUTBLP [MICcombo],MRSE 61589 [9]; [15],8 µg/mL
same,MICchloramphenicol [MICcombo],MRSE 61589 [9]; [17],4 µg/mL
same,Interpretation,MSSE 81388 [10]; UTBLP + chloramphenicol,Additive (0.5 < x ≤ 4 is additive)
same,MICUTBLP,MSSE 81388 [10]; [19],16 µg/mL
same,MICUTBLP [MICcombo],MSSE 81388 [10]; [15],0.25 µg/mL
same,MICchloramphenicol [MICcombo],MSSE 81388 [10]; [17],4 µg/mL
